{
  "source": "patent US20250134820A1",
  "about": "“PHARMACEUTICAL COMPOSITIONS” (Novartis AG, priority 2021, published 2025)",
  "key": {"[1]": {"test": "ADME/PK profile across tested species", "format": "in vivo", "text": "(§1) GastroPlus modeling predicted dissolution and/or solubility limitations of the free form of Compound A at high doses."}, "[2]": {"test": "pHmax of the fumarate salt", "format": "physicochemical", "settings": "estimated", "text": "The pHmax of the fumarate salt is estimated to be about 4.5. An increase in pH above 4.5 may potentially increase the risk of disproportionation."}, "[3]": {"test": "Disproportionation (XRPD) of ASAP batches", "format": "physicochemical", "procedure": "The compatibility of Compound A fumarate was further evaluated in 21 days ASAP study involving three different formulation principles, wet granulation, dry blending and roller compaction. The drug load selected for study was 5% w/w, translating to 6.40% w/w of fumarate salt. The XRPD of the samples were evaluated at certain time intervals according to the Safety Protocol in Table 5.\nThe analysis was done for the samples stored at 21 days."}, "[4]": {"test": "Solubility of Compound A fumarate at 25° C.", "format": "physicochemical", "settings": "for solubility at 24 h: thermodynamic from solid", "procedure": "(§2) Solubility of the fumarate in FaSSIF is 0.09 mg/mL and 0.21 mg/mL in FeSSIF. […] The maximum water uptake by DVS is less than 0.1% up to 95% RH at 25° C."}, "[5]": {"test": "Hygroscopicity, water uptake by DVS", "format": "physicochemical", "procedure": "as §2"}, "[6]": {"test": "Solubility and dissolution rate of the free form in biorelevant media", "format": "physicochemical", "text": "as §1"}},
  "note": "Structures can show the parent of a compound that is named as a salt.",
  "data": [
    {"smiles": "FC(F)OC1=CC(C(F)(F)F)=CN2C[C@@]3(CCC(F)(F)c4c3ccnc4Cl)N=C12", "note": "[Compound A, (S)-1′-chloro-8-(difluoromethoxy)-8′,8′-difluoro-6-(trifluoromethyl)-7′,8′-dihydro-3H,6′H-spiro[imidazo[1,2-a]pyridine-2,5′-isoquinoline]]", "values": [
      {"measurement": "Clearance", "setting": "[1]", "result": "low to very low"},
      {"measurement": "Oral bioavailability", "setting": "[1]", "result": "good"}
    ]},
    {"smiles": "FC(F)OC1=CC(C(F)(F)F)=CN2C[C@@]3(CCC(F)(F)c4c3ccnc4Cl)N=C12", "note": "[Compound A fumarate, (S)-1′-chloro-8-(difluoromethoxy)-8′,8′-difluoro-6-(trifluoromethyl)-7′,8′-dihydro-3H,6′H-spiro[imidazo[1,2-a]pyridine-2,5′-isoquinoline]]", "values": [
      {"measurement": "pHmax", "setting": "[2]", "result": "about 4.5"},
      {"measurement": "Disproportionation result (XRPD)", "setting": "[3]; 50° C./75% RH - 21 days", "result": "No free form peak"},
      {"measurement": "Disproportionation result (XRPD)", "setting": "[3]; 60° C./80% RH - 21 days", "result": "No free form peak"},
      {"measurement": "Disproportionation result (XRPD)", "setting": "[3]; 70° C./41% RH - 21 days", "result": "No free form peak"},
      {"measurement": "Disproportionation result (XRPD)", "setting": "[3]; 80° C./50% RH - 21 days", "result": "No free form peak"},
      {"measurement": "solubility at 24 h", "setting": "[4]; 25 °C, aqueous buffer, pH 1.2 to pH 4.7", "result": "≥ 2000", "unit": "µg/mL"},
      {"measurement": "solubility at 24 h", "setting": "[4]; acetate buffer pH 4.7, aqueous buffer, 25° C., pH 4.7 buffer (acetate)", "result": "> 2000", "unit": "µg/mL"},
      {"measurement": "solubility at 24 h", "setting": "[4]; hydrochloric acid buffer pH 1.2, simulated gastric fluid, 25° C., pH 1.2 buffer (hydrochloric acid)", "result": "> 2000", "unit": "µg/mL"},
      {"measurement": "solubility at 24 h", "setting": "[4]; hydrochloric acid buffer pH 2, simulated gastric fluid, 25° C., pH 2 buffer (hydrochloric acid)", "result": "> 2000", "unit": "µg/mL"},
      {"measurement": "solubility at 24 h", "setting": "[4]; organic solvent or mixture, 25° C., Acetonitrile", "result": "> 100000", "unit": "µg/mL"},
      {"measurement": "solubility at 24 h", "setting": "[4]; organic solvent or mixture, 25° C., Ethanol", "result": "> 100000", "unit": "µg/mL"},
      {"measurement": "Solid residues obtained after 24h equilibration", "setting": "[4]; pH values of 5.4 and above", "result": "correspond to the free form"},
      {"measurement": "solubility at 24 h", "setting": "[4]; phosphate buffer pH 6.8, aqueous buffer, 25° C., pH 6.8 buffer (phosphate)", "result": 30, "unit": "µg/mL"},
      {"measurement": "solubility at 24 h", "setting": "[4]; 25° C., Water", "result": "> 2000", "unit": "µg/mL"},
      {"measurement": "solubility at 24 h", "setting": "[4]; 25° C., pH 2.0 (SGF), simulated gastric fluid", "result": "> 2000", "unit": "µg/mL"},
      {"measurement": "solubility at 24 h", "setting": "[4]; 25° C., pH 5.8 (FeSSIF), fed state simulating intestinal fluid", "result": 210, "unit": "µg/mL"},
      {"measurement": "solubility at 24 h", "setting": "[4]; 25° C., pH 6.5 (FaSSIF), fasted state simulating intestinal fluid", "result": 90, "unit": "µg/mL"},
      {"measurement": "Hygroscopicity", "setting": "[5]", "result": "non hygroscopic"},
      {"measurement": "Maximum water uptake by DVS", "setting": "[5]; up to 95% RH at 25° C.", "result": "less than 0.1%"}
    ]},
    {"smiles": "FC(F)OC1=CC(C(F)(F)F)=CN2C[C@@]3(CCC(F)(F)c4c3ccnc4Cl)N=C12", "note": "[free form of Compound A, (S)-1′-chloro-8-(difluoromethoxy)-8′,8′-difluoro-6-(trifluoromethyl)-7′,8′-dihydro-3H,6′H-spiro[imidazo[1,2-a]pyridine-2,5′-isoquinoline]]", "values": [
      {"measurement": "Clearance", "setting": "[1]", "result": "low"},
      {"measurement": "Oral bioavailability", "setting": "[1]", "result": "moderate to high"},
      {"measurement": "Solubility", "setting": "[6]", "result": "poor"},
      {"measurement": "Dissolution rate", "setting": "[6]; in biorelevant media", "result": "slow"}
    ]}
  ]
}
